Test results as given in patent US20230390268A1 (priority 2022, published 2023).
“Also recorded” adds a separate entry of the source. Like-named read-outs stand apart in the source and are kept apart here.

Experiments:
[1] = test system: Vesicular stomatitis virus (VSV); assay type: cell-based
[2] = test system: SARS-CoV-2; assay type: cell-based
[3] = test system: TNFα; test: TNFα transcript levels by qPCR in SARS-CoV-2 infected Calu3 cells; assay type: cell-based, human; conditions: Calu3 cells infected with SARS-CoV-2
[4] = test system: IL6; test: IL6 transcript levels by qPCR in SARS-CoV-2 infected Calu3 cells; assay type: cell-based, human; conditions: Calu3 cells infected with SARS-CoV-2
[5] = test system: IL8; test: IL8 transcript levels by qPCR in SARS-CoV-2 infected Calu3 cells; assay type: cell-based, human; conditions: Calu3 cells infected with SARS-CoV-2
[6] = test system: Herpes Simplex Virus (HSV); assay type: cell-based
[7] = test system: HIV-1 NL4-3 GFP; assay type: cell-based
[8] = test system: Vaccinia virus (VacV); assay type: cell-based
[9] = test system: THF cells; test: Cell viability MTT assay; conditions: 50 μM, 24 hr, compared with DMSO
[10] = test system: ASK1/p38MAPK; assay type: cell-based, human
[11] = test system: autophagy; assay type: cell-based, human; conditions: Calu3 and THF cells infected with VSV, Selonsertib 50 μM, 24 hr
[12] = test system: mTORC1; assay type: cell-based, human; conditions: Calu3 and THF cells infected with VSV, Selonsertib 50 μM, 24 hr, versus DMSO+VSV
[13] = test system: SARS-CoV-2/SB3; set-up: species or system Syrian Hamster; conditions: in vivo
[14] = test system: Calu3 cells; assay type: cell-based, human; conditions: 1 MOI of VSV, Selonsertib 50 μM, 24 hr
[15] = test system: SARS-CoV-2; assay type: cell-based; remark: listed apart in the source
[16] = test system: VSV; assay type: cell-based
[17] = test system: HSV; test: HSV-GFP replication in CHL-11 hamster cell line; assay type: cell-based; conditions: CHL-11 cells, HSV-GFP MOI of 1, 0.1 or 0.01, Selonsertib 25 or 50 μM, 24 h
[18] = test system: JNK; assay type: cell-based, human
[19] = test system: SARS-CoV-2; assay type: cell-based; remark: listed apart in the source
[20] = test system: VSV; assay type: cell-based; remark: listed apart in the source

SMILES | VSV replication [1] | SARS-CoV-2 replication [2] | levels of TNFα [3] | levels of IL6 [4] | levels of IL8 [5] | GFP-intensity of HSV [6] | GFP-intensity of VSV [1] | duration of effect on viral replication after aspirating drugs [1] [h] | HIV-1-GFP replication [7] | GFP-intensity of VacV [8] | cell viability [9] | other results
Cc1ccc(-n2nc(C(C)(C)C)cc2NC(=O)Nc2ccc(OCCN3CCOCC3)c3ccccc23)cc1 [BIRB, Doramapimod] | no obvious effect; also recorded: no noticeable effect | no antiviral properties | diminish | diminish | diminish | – | – | – | – | – | – | –
O=C(Nc1cccc(-c2nncn2C2CC2)c1)c1cc(-n2cnc(C3CC3)c2)ccn1 [GS-444217] | – | drastically reduces | diminish | diminish | diminish | significantly abolish | significantly abolish | 24 | abrogates replication | significantly abolish | healthy and safe; also recorded: no difference | duration of effect on phosphorylation of ASK1/p38MAPK after aspirating drugs ([10]; pretreatment 24 hours, drugs aspirated prior VSV infection, Calu3 cells): 24 h
Cc1cc(F)c(C(=O)Nc2cccc(-c3nncn3C(C)C)n2)cc1-n1cnc(C2CC2)c1 [Selonsertib] | gradually decreased | drastically reduces | diminish | diminish | diminish | significantly abolish | significantly abolish | 24 | abrogates replication | significantly abolish | healthy and safe; also recorded: no difference | autophagy marker, LC3II [11]: not affected; time after adding drug at which VSV replication starts to weaken [1]: 2 h; Phosphorylation levels of p70 (S6K1) [12]: not changed; percentage of weight loss ([13]; hamster): the most; IHC staining against SARS-CoV2 nucleocapsid in the hamster lung tissue [13]: dominated a spatial area of the lung tissue; SARS-CoV-2 replication in hamster tissue [13]: augmented; changes in cell morphology caused by VSV replication [14]: remarkably alleviates; also recorded: relieved; level of SARS-CoV2 nucleocapsid [15]: remarkably increased; antiviral effect against VSV in hamster cell line [16]: antiviral properties; antiviral effect against HSV in hamster cell line [17]: antiviral properties; JNK phosphorylation [18]: reduced; SARS-CoV-2 nucleoprotein in infected HAP1 KO cells treated or not [19]: no significant difference; duration of effect on phosphorylation of ASK1/p38MAPK after aspirating drugs [10]: 24 h; time after adding drug at which p38MAPK phosphorylation starts to weaken [10]: 2 h; VSV infection in HAP1 KO cells [20]: still able to swipe the leftover of VSV infection
